Measurements published in PMC4537572, “Cellobionic acid utilization: from Neurospora crassa to Saccharomyces cerevisiae” (Biotechnology for Biofuels, 2015).

What was measured:
[1] = biological target: T1, CBT-1 (NCU05853) (Neurospora crassa, UniProt Q7S555); experiment: yeast cell-based uptake assay, HPAEC of remaining sugar; conditions: pH 6.0, 30 °C, 30 min; 5 mM MES, 100 mM NaCl; S. cerevisiae cells expressing the transporter
T1 construct: expressed in S. cerevisiae from plasmid pRS426_NCU05853
T1 sequence (Q7S555 entry or part of it): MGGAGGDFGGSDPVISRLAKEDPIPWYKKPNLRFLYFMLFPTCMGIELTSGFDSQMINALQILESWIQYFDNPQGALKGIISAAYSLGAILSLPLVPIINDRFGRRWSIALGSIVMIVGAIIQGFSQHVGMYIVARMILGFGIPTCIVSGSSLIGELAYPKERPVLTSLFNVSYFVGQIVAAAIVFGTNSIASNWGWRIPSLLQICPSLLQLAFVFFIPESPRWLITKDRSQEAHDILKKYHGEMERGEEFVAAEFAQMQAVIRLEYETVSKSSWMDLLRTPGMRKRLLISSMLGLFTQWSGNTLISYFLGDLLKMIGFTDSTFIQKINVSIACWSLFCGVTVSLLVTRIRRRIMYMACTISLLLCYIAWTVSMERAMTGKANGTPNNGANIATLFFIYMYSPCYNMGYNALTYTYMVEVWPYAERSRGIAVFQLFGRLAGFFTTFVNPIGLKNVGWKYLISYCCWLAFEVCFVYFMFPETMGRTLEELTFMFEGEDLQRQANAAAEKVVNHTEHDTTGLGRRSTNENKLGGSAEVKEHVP
Text: yeast cell-based uptake assay, HPAEC of remaining sugar on CBT-1 (NCU05853) | only NCU05853 […] was capable of transporting cellobionic acid into the cell

[2] = biological target: CAP (NCU09425) (Neurospora crassa, UniProt Q7S0S2); conditions: 2 mM cellobionate, 0.5 μM enzyme, 1x PBS, 30 °C, 30 min
Sequence of CAP (NCU09425) (Q7S0S2 whole entry): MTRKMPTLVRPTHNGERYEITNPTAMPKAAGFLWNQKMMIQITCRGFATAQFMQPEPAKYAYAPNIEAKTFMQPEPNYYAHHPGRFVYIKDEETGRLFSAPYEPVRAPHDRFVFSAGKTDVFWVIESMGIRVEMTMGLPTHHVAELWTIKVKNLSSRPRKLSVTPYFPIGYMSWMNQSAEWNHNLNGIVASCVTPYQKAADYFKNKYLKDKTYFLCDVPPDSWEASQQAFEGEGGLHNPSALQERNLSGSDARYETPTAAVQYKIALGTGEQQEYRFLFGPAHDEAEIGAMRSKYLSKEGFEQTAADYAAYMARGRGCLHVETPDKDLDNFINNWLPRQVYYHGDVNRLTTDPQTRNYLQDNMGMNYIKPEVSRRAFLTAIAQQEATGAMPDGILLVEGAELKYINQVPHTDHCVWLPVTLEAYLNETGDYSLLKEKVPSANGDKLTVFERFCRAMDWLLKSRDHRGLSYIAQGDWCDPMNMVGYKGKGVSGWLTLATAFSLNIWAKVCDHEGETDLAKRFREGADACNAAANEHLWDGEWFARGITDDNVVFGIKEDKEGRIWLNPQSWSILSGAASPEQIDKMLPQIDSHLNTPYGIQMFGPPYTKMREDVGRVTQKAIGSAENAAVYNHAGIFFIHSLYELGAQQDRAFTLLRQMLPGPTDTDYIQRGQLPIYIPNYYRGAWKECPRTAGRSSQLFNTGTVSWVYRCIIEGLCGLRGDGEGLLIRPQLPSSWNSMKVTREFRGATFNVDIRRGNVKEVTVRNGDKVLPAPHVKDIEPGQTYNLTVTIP

[3] = biological target: T2, S. cerevisiae gluconokinase (YDR248C) (Saccharomyces cerevisiae, UniProt Q03786); experiment: gluconokinase assay, HPAEC of products; format: biochemical; conditions: 1 mM gluconate, 5 mM ATP, 0.2 μM enzyme, 1x PBS, 30 °C, 30 min
T2 construct: full ORF with C-terminal His6-tag, expressed in and purified from S. cerevisiae
T2 sequence (Q03786 1-193): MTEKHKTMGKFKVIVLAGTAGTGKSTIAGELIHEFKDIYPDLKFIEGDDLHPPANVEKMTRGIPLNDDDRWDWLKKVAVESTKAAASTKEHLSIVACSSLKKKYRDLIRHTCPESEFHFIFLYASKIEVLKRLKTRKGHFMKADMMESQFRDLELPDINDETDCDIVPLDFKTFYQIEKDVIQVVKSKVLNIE

Row | SMILES | yeast cell-based uptake assay, HPAEC of remaining sugar [1] | phosphorolysis, HPAEC of products [2] | gluconokinase assay, HPAEC of products [3]
1 | O=C(O)[C@H](O)[C@@H](O)[C@H](O[C@@H]1O[C@H](CO)[C@@H](O)[C@H](O)[C@H]1O)[C@H](O)CO [A2, cellobionic acid] | only NCU05853 [...] was capable of transporting cellobionic acid into the cell | specifically cleaved cellobionic acid to gluconic acid and glucose 1-phosphate | 
2 | O=C(O)[C@H](O)[C@@H](O)[C@H](O)[C@H](O)CO [A1, gluconic acid] |  |  | YDR248C has gluconokinase activity in vitro
